In patent publication US20250099596A1, “TETRAHYDRONAPHTHALENE COMPOUND, AND PREPARATION METHOD THEREFOR AND USE THEREOF IN MEDICINE” (Jiangsu Hengrui Pharmaceuticals Co., Ltd., priority 2021, published 2025):
Values after ≈ are worked out from the molar mass of the structure shown. Read-outs that look alike come from different tables or passages of the source.

Tests used:
[1] = Pharmacokinetic evaluation, SD rat test; assay type: in vivo; conditions: SD rats; for AUC(0-t): read-out: Area under curve AUC0-t; for half-life: read-out: Half-life T1/2 (converted); for Cmax: read-out: Plasma concentration Cmax
Method: With SD rats as test animals, the plasma concentration of the compound of Example 26-1 was determined by LC/MS/MS at different time points after intragastric (i.g.)/intravenous (i.v.) administration to SD rats. The pharmacokinetic behavior of the compound of the present disclosure in SD rats was studied and its pharmacokinetic profile was evaluated.
Eight SD rats, of which half were male and half female, were evenly divided into 2 groups. The rats were provided by Zhejiang Vital River Laboratory Animal Technology Co., Ltd. The 2 groups were fasted overnight and then dosed intragastrically and intravenously, respectively.
An appropriate amount of the compound of Example 26-1 was weighed out and mixed with 5% EtOH+95% (a 15% solution of polyethylene glycol 15-hydroxystearate prepared in a 5% aqueous solution of glucose) to make a 0.2 mg/mL colorless clear solution (for the intragastric administration group) and a 0.2 mg/mL colorless clear solution (for the intravenous administration group).
The intragastric administration group: the dose was 2.0 mg/kg, and the volume was 10.0 mL/kg.
The intravenous administration group: the dose was 1.0 mg/kg, and the volume was 5.0 mL/kg.
The intragastric administration group: Blood (0.2 mL) was collected from the orbit into EDTA-K2 anticoagulation tubes before administration and 0.25 h, 0.5 h, 1.0 h, 2.0 h, 4.0 h, 6.0 h, 8.0 h, 11.0 h and 24.0 h after administration and centrifuged at 10,000 rpm for 1 min (4° C.). The plasma was separated within 1 h and stored at −20° C. before analysis. The process from blood collection to centrifugation was performed in an ice bath. Two hours after administration, feeding was resumed.
The intravenous administration group: Blood was collected before administration and 5 min, 15 min, 0.5 h, 1.0 h, 2.0 h, 4.0 h, 8.0 h, 11.0 h and 24 h after administration and processed as in the intragastric administration group.
The plasma concentration of the test compound was determined after administration of different concentrations of the test compound to SD rats: plasma samples (25 μL) were collected from SD rats at various time points after administration, and 50 μL of camptothecin (100 ng/mL) was added to each of the samples; proteins were precipitated with 200 μL of acetonitrile; the mixtures were vortexed for 5 min and centrifuged at 4000 rpm for 10 min. 1 μL of supernatant was collected for LC/MS/MS analysis.

[2] = Solubility in FassIF and FessIF solution; assay type: physicochemical; conditions: thermodynamic from solid
Method: Solution (A): 4.441 g of NaH2PO4·2H2O, 0.348 g of NaOH granules and 6.186 g of NaCl were added to 900 mL of ultrapure water and well mixed, and the solution was adjusted to pH 6.5±0.05 with 1 M NaOH, brought to volume (1000 mL) with water, and stored at 4° C. for future use.
FaSSIF solution (B): 0.161 g of sodium taurocholate (NaTC) and 59 mg of lecithin were dissolved in 20 mL of solution (A). The resulting solution was vigorously stirred overnight to form a clear micellar solution, and solution (A) was added to make a volume of 100 mL. The resulting solution was stored at 4° C. for future use (not more than 2 weeks).
Solution (A): 20.2 g of NaOH granules, 43.25 g of acetic acid and 59.37 g of sodium chloride were precisely weighed out and dissolved in a proper amount of ultrapure water. The solution was brought to volume (5 L), adjusted to pH 5.0 with 1 M NaOH or 1 M HCl, and stored at 4° C. for future use.
FeSSIF solution (B): 0.80652 g of sodium taurocholate (NaTC) and 295.5 mg of lecithin were dissolved in 25 mL of solution (A). […]
3.1. […] 10 μL of the stock solution (concentration 10 mM, dissolved in DMSO) was precisely measured out and well mixed with 990 μL of an organic solvent mixture (usually DMSO:acetonitrile:ethanol=1:1:1) in a 2 mL sample flask to obtain a 100 μM clear sample solution as a reference solution. […]

[3] = both sexes, rat, plasma, iv, i.v., 1.0 mg/kg
[4] = both sexes, rat, plasma, po, i.g., 2.0 mg/kg

Clearance CL/F ([1]; i.v., 1.0 mg/kg): 6.4 mL/min/kg
AUC(0-t) [1, 3]: 2640 ng·h/mL
half-life [1, 3]: 4.8 h
Cmax [1, 3]: 4040 ng/mL
Vd/F ([1]; both sexes, rat, plasma, po, i.g., 2.0 mg/kg, read-out: Apparent distribution volume Vz/F): 38.5 L/kg
AUC(0-t) [1, 4]: 302 ng·h/mL
CL/F ([1]; both sexes, rat, plasma, po, i.g., 2.0 mg/kg, read-out: Clearance CL/F): 102 mL/min/kg
half-life [1, 4]: 4.4 h
Cmax [1, 4]: 32.9 ng/mL
solubility at 24 h ([2]; FassIF solution pH 6.5, 37° C., read-out: Solubility in FassIF solution): 97 µM (≈ 68.3 µg/mL)
solubility at 24 h ([2]; FessIF solution pH 5.0, 37° C., read-out: Solubility in FessIF solution): 553 µM (≈ 389 µg/mL)
SMILES: CC(C)C[C@H]1CCc2cc(O)ccc2[C@H]1c1ccc(N2CCC(CN3CCN(c4ccc5c(c4)CN([C@H]4CCC(=O)NC4=O)C5=O)CC3)CC2)cc1 [Example 26-1, (S)-3-(5-(4-((1-(4-((1R,2R)-6-Hydroxy-2-isobutyl-1,2,3,4-tetrahydronaphthalen-1-yl)phenyl)piperidin-4-yl)methyl)piperazin-1-yl)-1-oxoisoindolin-2-yl)piperidine-2,6-dione]
